Drawing on patent publication US11679097B2, “Combination product containing limonoid compound and biguanide compound” (ZHEJIANG YANGSHENGTANG INSTITUTE OF NATURAL MEDICATION CO., …, priority 2017, dated 2023), this text covers Blood glucose value and Leptin for one compound.

What all share (format): in vivo
The test system of assay [1] is STZ mice. Kind of assay: Blood glucose in mouse pancreatic islet β-cell injury model (Example 1). The conditions noted are these: STZ ICR mice; single administration 0.02 g/kg per day by gavage, two weeks; 1 h after last administration. The text has this: Effects of a Limonoid Compound, Metformin or a Combination Thereof on Blood Glucose in a Mouse Pancreatic Islet β-Cell Injury Model In this example, a mouse pancreatic islet β-cell injury model was established by modeling ICR mice with streptozotocin (STZ) (referred to the prior art literature: Li Nan et al., Protective effect of pine pollen on kidney damage in diabetic nephropathy mice, Science and Technology Review, 2014, 32 (4/5): 95-99), and used to complete the evaluation of hypoglycemic effect in animals (this model could simulate pancreatic islet β-cell damage state of type I and type II diabetics). […] Conditions of experimental feeding: ICR mice (20±2 g), aged 6 weeks, purchased from Zhejiang Academy of Medical Sciences, and subjected to experimental feeding after 7 days of preliminary feeding. […] The experimental feed was mouse growth-stable feed (GB […]), and the daily feeding and management of the animals were under the responsibility of the animal security department, which provided the animals with sufficient padding and fresh drinking water daily. Experimental grouping: 15 male mice were randomly selected as the normal control group. […] Gavage doses: the gavage dose was 0.02 g/kg per day for the limonin group, the gavage dose was 0.02 g/kg per day for the isolimonic acid group, the gavage dose was 0.02 g/kg per day for the limonin 17-β-D-glucopyranoside group, the gavage dose of metformin was 0.02 g/kg per day for the metformin group, limonin at a dose of 0.01 g/kg and metformin at a dose of 0.01 g/kg were simultaneously gavaged per day for the limonin/metformin combination group, isolimonic acid at a dose of 0.01 g/kg and metformin at a dose of 0.01 g/kg were simultaneously gavaged per day for the isolimonic acid/metformin combination group, limonin 17-β-D-glucopyranoside at a dose of 0.01 g/kg and metformin at a dose of 0.01 g/kg were simultaneously gavaged per day for the limonin 17-β-D-glucopyranoside/metformin combination group, isolimonic acid 17-β-D-glucopyranoside at a dose of 0.01 g/kg and metformin at a dose of 0.01 g/kg were simultaneously gavaged per day for the isolimonic acid 17-β-D-glucopyranoside/metformin combination group, the gavage volume was 10 mL/kg, and the normal group and the model group were administrated with 10 mL/kg of distilled water. […] SPSS 16.0 software was used for statistical analysis. The data were expressed as mean and standard deviation. The data before and after were analyzed by t-test, and P<0.05 was considered statistically significant.

Assay [2] has as its system db/db mice. Kind of assay: Blood glucose and leptin in mouse model of type II diabetes (Example 2). To be noted: single administration 0.04 g/kg per day by gavage, two weeks. The text has this: Effects of a Limonoid Compound, Metformin or a Combination Thereof on Blood Glucose and Leptin in a Mouse Model of Type II Diabetes In the present example, db/db mice (line name BKS.Cg-Dock7^m+/+ Lepr^db/Nju) were used to perform hypoglycemic efficacy evaluation test of animals (blood glucose level and leptin). […] Conditions for experimental feeding: as type II diabetes model mice, 6-week-old SPF-grade db/db mice were purchased from the Nanjing Model Biology Institute, and subjected to experimental feeding after 7 days of preliminary feeding. […] The experimental feed was mouse growth-stable feed (GB […]), and the daily feeding and management of the animals were under the responsibility of the animal security department, which provided the animals with sufficient padding and fresh drinking water daily. Experimental grouping: male db/db mice (20±2 g) were selected, and 18 male mice in each group were tested. […] Gavage doses: obacunone at a dose of 0.04 g/kg was gavaged per day for the obacunone group, isoobacunoic acid at a dose of 0.04 g/kg was gavaged per day for the isoobacunoic acid group, obacunone 17-β-D-glucopynoside at a dose of 0.04 g/kg was gavaged per day for the obacunone 17-β-D-glucopynoside group, metformin at a dose of 0.04 g/kg was gavaged per day for the metformin group, obacunone at a dose of 0.02 g/kg and metformin at a dose of 0.02 g/kg were simultaneously gavaged per day for the obacunone/metformin combination group, isoobacunoic acid at a dose of 0.02 g/kg and metformin at a dose of 0.02 g/kg were simultaneously gavaged per day for the isoobacunoic acid/metformin combination group, obacunone 17-β-D-glucopynoside at a dose of 0.02 g/kg and metformin at a dose of 0.02 g/kg were simultaneously gavaged per day for the obacunone 17-β-D-glucopynoside/metformin combination group, the gavage volume was 10 mL/kg, and the normal group and the model group were administrated with 10 mL/kg of distilled water. […] The data were expressed as mean and standard deviation. The data before and after were analyzed by t-test, and P<0.05 was considered statistically significant.

In assay [3] the test system is STZ mice. The assay is described as follows: Blood glucose in mouse pancreatic islet β-cell injury model (Example 3). The conditions noted are these: STZ ICR mice; single administration 0.1 g/kg per day by gavage, two weeks; 1 h after last administration. The source says: Effects of a Limonoid Compound, Metformin or a Combination Thereof on Blood Glucose in a Mouse Pancreatic Islet β-Cell Injury Model In this example, a mouse pancreatic islet β-cell injury model was established by modeling ICR mice with streptozotocin (STZ) (referred to the prior art literature: Li Nan et al., Protective effect of pine pollen on kidney damage in diabetic nephropathy mice, Science and Technology Review, 2014, 32 (4/5): 95-99), and used to complete the evaluation of hypoglycemic effect in animals (this model could simulate pancreatic islet β-cell damage state of type I and type II diabetics). […] Conditions of experimental feeding: ICR mice (20±2 g), aged 6 weeks, purchased from Zhejiang Academy of Medical Sciences, and subjected to experimental feeding after 7 days of preliminary feeding. […] The experimental feed was mouse growth-stable feed (GB […]), and the daily feeding and management of the animals were under the responsibility of the animal security department, which provided the animals with sufficient padding and fresh drinking water daily. Experimental grouping: 15 male mice were randomly selected as the normal control group. […] Gavage doses: the gavage dose was 0.1 g/kg per day for the […] group, the gavage dose was 0.1 g/kg per day for the […] group, the gavage dose was 0.1 g/kg per day for the […]-glucopyranoside group, the gavage dose of metformin was 0.1 g/kg per day for the metformin group, […] dose of 0.05 g/kg and metformin at a dose of 0.05 g/kg were simultaneously gavaged per day for the […]/metformin combination group, […] dose of 0.05 g/kg and metformin at a dose of 0.05 g/kg were simultaneously gavaged per day for the […]/metformin combination group, […]-glucopyranoside at a dose of 0.05 g/kg and metformin at a dose of 0.05 g/kg were simultaneously gavaged per day for the […]-glucopyranoside/metformin combination group, the gavage volume was 10 mL/kg, and the normal group and the model group were administrated with 10 mL/kg of distilled water. […] SPSS 16.0 software was used for statistical analysis. The data were expressed as mean and standard deviation. The data before and after were analyzed by t-test, and P<0.05 was considered statistically significant.

For `CN(C)C(=N)NC(=N)N` [Metformin, N,N-dimethylimidodicarbonimidic diamide, reference compound], the Blood glucose value is reported as 22.6 ± 3.9 mmol/L in assay [1], 15.5 ± 3.6 mmol/L in assay [2] (1 h after last administration) and 17.2 ± 3.9 mmol/L in assay [3]. Moreover, the Leptin in assay [2] (serum, Elisa) was 34.49 ± 3.38 pg/mL.
